Experimental data: patent publication US20260248788A1, “NEW COMPOUNDS AND TREATMENT OF RENAL CELL CARCINOMA” (TRUSTLIFE THERAPEUTICS INC., priority 2023, published 2026)
“Also recorded” adds a separate entry of the source.

Experiments:
Assay type in all cases: cell-based, human
BUB1B = experiment: Western blot of BUB1B in Caki-1 cells treated with TG-101209 derivatives; settings: for expression levels of BUB1B (Western blot): Caki-1 cells, 5 μM of target drug, 1 day (FIG. 41, 56); for expression levels of BUB1B (summary statement): concentration not given
Procedure: (§1) Cell culture 2: Caki-1 was purchased from CLS Cell Lines Service (Germany). The cells were maintained in McCoy's 5A (modified) medium (16600082, Thermo Fisher Scientific, USA) and supplemented with 10% fetal bovine serum (FBS, F7524, Sigma-Aldrich), 1% Penicillin/Streptomycin (P4333, Sigma-Aldrich).
The target drugs developed as alternatives to TG-101209, were dissolved in 0.1% DMSO (41639, Sigma-Aldrich). Caki-1 cells from cell culture 2 were seeded in a 6-well plate at 3×10^5 cells per well. […]
The cells were washed with PBS solution and then lysed with CelLytic M (C2978, Sigma-Aldrich) lysis buffer containing protease inhibitors (11836170001, Roche). The cell lysates were centrifuged at 12 000 rpm for 10 min and supernatants were collected. Protein Assay Dye Reagent (5000006, Bio-Rad) was used for the determination of protein concentration. The absorbance of the proteins was measured spectrophotometrically at 595 nm by a microplate reader (Hidex Sense Beta Plus). Protein electrophoresis was performed using Mini-PROTEAN® TGX™ Precast Gels (4561086, Bio-Rad) and then the separated proteins were transferred to a Trans-Blot Turbo Mini 0.2 μm PVDF Transfer Packs membrane (1704158, Bio-Rad) by using Trans-Blot® Turbo™ Transfer System (Bio-Rad). The membrane was blocked with 5% skim milk for 30 min at 4° C. with gentle rocking. After blocking, the membrane was treated with primary antibodies: Anti-BUB1B (HPA008419, Human Protein Atlas, Sweden) and Anti-Beta actin (ab8227, Abcam) as a loading control overnight at 4° C. on a rocking platform. After the treatment of primary antibodies, the membrane was washed three times with TBS-T buffer (A09-7500-100, Medicago). Then, Goat anti-Rabbit IgG-HRP (ab205718, Abcam) was treated as the secondary antibody for 30 min at 4° C. with gentle rocking.

Caki-1 cells [1] = experiment: MTT cell viability assay; settings: for change of IC50 values after 2 days compared to 1 day treatment: Caki-1 (FIG. 53-54); for reduction in cell viability (MTT) / effect on cell viability (MTT): 1 day; for cell viability over the treatment period (MTT): 27 h, 48 h and 72 h (FIG. 55); for IC50 values compared with TG-101209: Caki-1, 1 and 2 days (FIG. 53-54); for cell viability of treated cells (summary statement) / reduction in cell viability according to MTT assay (conclusion): concentration not given; for reduction in cell viability according to MTT assay (conclusion): Caki-1
Procedure: as §1
The cytotoxic effects of the TG-101209 and its alternatives on the Caki-1 cells were tested by MTT (Thiazolyl Blue Tetrazolium Bromide) method. 1.5×10^4 cells were seeded per well in a 96-well plate in 100 μL growth media. […] After the incubation period, 5 mg/ml MTT (M2128, Sigma-Aldrich) solution in PBS (10 μL) was added to each well. After 1 hour, the MTT solution and all media were removed from the wells. 100 μl of DMSO was added and mixed to dissolve the formazan crystals. Cell viability was analysed by measuring the absorbance of the dissolved formazan at a wavelength of 570 nm with a microplate reader (Hidex Sense Beta Plus).

Caki-1 cells [2] = experiment: LDH cytotoxicity assay; settings: for cytotoxic effect and dose dependence: Caki-1, 10 nM-30 μM; for cytotoxicity (LDH assay): Caki-1, 10 μM; for cytotoxicity (LDH assay) / Ranking, Cytotoxicity (%): 1 day; for Ranking, Cytotoxicity (%): top five, LDH assay, 10 μM, rank 1 = highest; for cytotoxicity according to LDH assay (conclusion): Caki-1; for cytotoxicity according to LDH assay (conclusion) / cytotoxicity (summary statement): concentration not given; for cell death / toxicity (LDH): Caki-1, 10 and 30 μM
Procedure: as §1
Lactate dehydrogenase (LDH) assay was performed with LDH Assay Kit (ab65393). […] 20 μl of media was analysed with LDH Assay Kit as per manufacturer's instruction.

Caki-1 cells [3] = experiment: Cell morphology (DIC images) of treated Caki-1 cells; settings: Caki-1, 10 μM, 1 day; for effect on the cell morphology: DIC images (FIG. 52)
Source text: The effect of treatment of Caki-1 cells with the target compounds was further evaluated by monitoring the cell morphology of treated cells, see FIG. 52.

SMILES | expression levels of BUB1B (Western blot) (BUB1B) | expression levels of BUB1B (summary statement) (BUB1B) | change of IC50 values after 2 days compared to 1 day treatment (Caki-1 cells [1]) | reduction in cell viability (MTT) (Caki-1 cells [1]; Caki-1, 5 μM, first batch) | effect on cell viability (MTT) (Caki-1 cells [1]; Caki-1, 10 μM, first batch) | cell viability over the treatment period (MTT) (Caki-1 cells [1]; Caki-1, 10 μM) | IC50 values compared with TG-101209 (Caki-1 cells [1]) | cell viability of treated cells (summary statement) (Caki-1 cells [1]) | cytotoxic effect and dose dependence (Caki-1 cells [2]) | cytotoxicity (LDH assay) (Caki-1 cells [2]; first batch) | Ranking, Cytotoxicity (%) (Caki-1 cells [2]) | mechanism according to morphology evaluation (Caki-1 cells [3]) | effect on the cell morphology (Caki-1 cells [3]) | reduction in cell viability (MTT) (Caki-1 cells [1]; Caki-1, 10 μM, second batch) | IC50 value after treatment for 1 day (Caki-1 cells [1]; Caki-1, doses 10 nM to 30 μM (FIG. 53)) | reduction in cell viability according to MTT assay (conclusion) (Caki-1 cells [1]) | cytotoxicity according to LDH assay (conclusion) (Caki-1 cells [2]) | cytotoxicity (LDH assay) (Caki-1 cells [2]; second batch) | cell death / toxicity (LDH) (Caki-1 cells [2]) | cytotoxicity (summary statement) (Caki-1 cells [2])
Cc1cnc(Nc2ccc(N3CCN(C)CC3)cc2)nc1Nc1cccc(S(=O)(=O)NC2CCC2)c1 [Compound M5, N-cyclobutyl-3-((5-methyl-2-((4-(4-methylpiperazin-1-yl)phenyl)amino)pyrimidin-4-yl)amino)benzenesulfonamide] | significantly lower the expression levels of BUB1B | reduction of the expression levels of BUB1B | largest decrease | the greatest | greatest reduction of cell viability | larger decrease in cell viability than TG-101209 | better IC50 values than TG-101209 | especially low cell viability; also recorded: particularly low cell viability | dose dependent toxicity | highest cytotoxicity | 2 | cell growth inhibition mechanism | distinct effect on the cell morphology | – | – | – | – | – | – | –
Cc1ccc(Nc2ncc(C)c(Nc3cccc(S(=O)(=O)NC(C)(C)C)c3)n2)cc1S(N)(=O)=O [Compound M66, N-(tert-butyl)-3-((5-methyl-2-((4-methyl-3-sulfamoylphenyl)amino)pyrimidin-4-yl)amino)benzenesulfonamide] | significantly lower the expression levels of BUB1B | reduction of the expression levels of BUB1B | – | the greatest | most profound effect | – | – | particularly low cell viability; also recorded: significantly reduced cell viability | – | exhibited cytotoxicity | 4 | – | – | – | – | – | – | – | – | –
COc1cc(Nc2ncc(C)c(Nc3cccc(S(=O)(=O)NC(C)(C)C)c3)n2)cc(OC)c1OC [Compound M76, N-(tert-butyl)-3-((5-methyl-2-((3,4,5-trimethoxyphenyl)amino)pyrimidin-4-yl)amino)benzenesulfonamide] | ability to lower the expression levels of BUB1B | reduction of the expression levels of BUB1B | largest decrease | – | – | larger decrease in cell viability than TG-101209 | better IC50 values than TG-101209 | especially low cell viability; also recorded: significantly reduced cell viability | dose dependent toxicity | – | – | cell growth inhibition mechanism | distinct effect on the cell morphology | the greatest | lowest IC50 value | greatest reduction in cell viability | greatest cytotoxicity | – | – | –
Cc1cnc(Nc2ccc(C(=O)Nc3ccc(N4CCN(C)CC4)cc3)cc2)nc1Nc1cccc(S(=O)(=O)NC(C)(C)C)c1 [Compound M101N, 4-((4-((3-(N-(tert-butyl)sulfamoyl)phenyl)amino)-5-methylpyrimidin-2-yl)amino)-N-(4-(4-methylpiperazin-1-yl)phenyl)benzamide] | did not affect the expression levels of BUB1B | – | – | – | – | larger decrease in cell viability than TG-101209 | – | particularly low cell viability; also recorded: significantly reduced cell viability | – | – | – | work as cytotoxic agents | distinct effect on the cell morphology | the greatest | – | greatest reduction in cell viability | greatest cytotoxicity | greatest cytotoxicity | strong toxicity | high cytotoxicity
Cc1cnc(Nc2ccc(C(=O)Nc3ccc(OCCN4CCCC4)cc3)cc2)nc1Nc1cccc(S(=O)(=O)NC(C)(C)C)c1 [Compound M101P, 4-((4-((3-(N-(tert-butyl)sulfamoyl)phenyl)amino)-5-methylpyrimidin-2-yl)amino)-N-(4-(2-(pyrrolidin-1-yl)ethoxy)phenyl)benzamide] | ability to lower the expression levels of BUB1B | – | – | – | – | larger decrease in cell viability than TG-101209 | – | particularly low cell viability; also recorded: significantly reduced cell viability | – | – | – | work as cytotoxic agents | distinct effect on the cell morphology | the greatest | – | greatest reduction in cell viability | greatest cytotoxicity | greatest cytotoxicity | strong toxicity | high cytotoxicity
COc1cc(Nc2ncc(C)c(Nc3ccc(N4CCN(C)CC4)cc3)n2)cc(OC)c1OC [Compound M119, 5-methyl-N4-(4-(4-methylpiperazin-1-yl)phenyl)-N2-(3,4,5-trimethoxyphenyl)pyrimidine-2,4-diamine] | – | reduction of the expression levels of BUB1B | – | – | – | – | – | especially low cell viability; also recorded: significantly reduced cell viability | – | – | – | – | – | – | – | – | – | – | – | –
COc1cc(Nc2ncc(C)c(Nc3cccc(S(=O)(=O)NC4CCC4)c3)n2)cc(OC)c1OC [Compound M120, N-cyclobutyl-3-((5-methyl-2-((3,4,5-trimethoxyphenyl)amino)pyrimidin-4-yl)amino)benzenesulfonamide] | – | reduction of the expression levels of BUB1B | – | – | – | – | – | especially low cell viability; also recorded: particularly low cell viability; also recorded: significantly reduced cell viability | – | – | – | – | – | the greatest | – | – | – | – | – | –
Cc1ccc(Nc2ncc(C)c(Nc3ccc(N4CCN(C)CC4)cc3)n2)cc1S(N)(=O)=O [Compound M123, 2-methyl-5-((5-methyl-4-((4-(4-methylpiperazin-1-yl)phenyl)amino)pyrimidin-2-yl)amino)benzenesulfonamide] | – | reduction of the expression levels of BUB1B | – | – | – | – | – | particularly low cell viability; also recorded: significantly reduced cell viability | – | – | – | – | – | – | – | – | – | – | – | –
